Active and inactive are the calls of the source. The calls are words filed in the database; no cut-off is given here.
How the values were obtained:
Sonchus arvensis = experiment: Herbicidal activity against Sonchus arvensis (field sow-thistle) assessed as induction of leaf necrotic lesions measured 48 hr post compound treatment by leaf disk- puncture bioassay
Cirsium arvense = experiment: Herbicidal activity against Cirsium arvense (Canada thistle) assessed as induction of leaf necrotic lesions measured 48 hr post compound treatment by leaf disk- puncture bioassay

How did the Activity (Sonchus arvensis) turn out when `C=C1[C@@H](C)[C@H]2[C@H](Cc3ccccc3)NC(=O)[C@]23C(=O)/C=C/[C@H](O)CCC[C@@H](C)C/C=C/[C@H]3[C@@H]1O` was run?
The Activity was “Active”.

What about the Activity (Cirsium arvense) of the same compound?
The Activity was “Active”.

For `C=C1[C@@H](C)[C@H]2[C@H](Cc3ccccc3)NC(=O)[C@]23OC(=O)/C=C/CC(O)CC[C@@H](C)C/C=C/[C@H]3[C@@H]1O` (stereo partly specified), which Activity (Cirsium arvense) is on record?
The Activity was “Active”.

What does the source list for `C[C@H]1C/C=C/[C@H]2C=C(CO)[C@@H](C)[C@H]3[C@H](Cc4ccccc4)NC(=O)[C@]32OC(=O)/C=C/[C@H](O)CCC1`?
Activity (Sonchus arvensis): Active; Activity (Cirsium arvense): Active

Which results are given for `C[C@H]1C/C=C/[C@H]2[C@@H]3O[C@]3(C)[C@@H](C)[C@H]3[C@H](Cc4ccccc4)NC(=O)[C@]32OC(=O)/C=C/[C@@H](O)CCC1`?
Activity (Sonchus arvensis): Active; Activity (Cirsium arvense): Active

With `C=C1[C@@H](C)[C@H]2[C@H](Cc3ccccc3)NC(=O)[C@]23OC(=O)/C=C/[C@H](O)CCC[C@@H](C)C/C=C/[C@H]3[C@@H]1O` as the compound, how does the Activity (Sonchus arvensis) read?
The Activity was “Active”.

What about the Activity (Cirsium arvense) of the same compound?
Its Activity is “Active”.

`O=Cc1ccc(O)cc1` was tested. Which Activity (Sonchus arvensis) did it give?
The Activity was “inactive”.

And the Activity (Cirsium arvense)?
Its Activity is “inactive”.

From ChEMBL document CHEMBL3045282, “Production of phytotoxins by Phoma exigua var. exigua, a potential mycoherbicide against perennial thistles” (J Agric Food Chem, 2008)
